Assays:
Carbonic anhydrase 2 = Carbonic anhydrase 2 (Homo sapiens, UniProt P00918)
Description: Inhibition of human carbonic anhydrase II assessed as inhibition constant by stopped-flow carbon dioxide hydrase assay

Carbonic anhydrase 12 = Carbonic anhydrase 12 (Homo sapiens, UniProt O43570)
Description: Inhibition of human carbonic anhydrase XII assessed as inhibition constant by stopped-flow carbon dioxide hydrase assay

Carbonic anhydrase 9 = Carbonic anhydrase 9 (Homo sapiens, UniProt Q16790)
Description: Inhibition of human carbonic anhydrase IX assessed as inhibition constant by stopped-flow carbon dioxide hydrase assay

Carbonic anhydrase 1 = Carbonic anhydrase 1 (Homo sapiens, UniProt P00915)
Sequence of Carbonic anhydrase 1 (P00915 whole entry): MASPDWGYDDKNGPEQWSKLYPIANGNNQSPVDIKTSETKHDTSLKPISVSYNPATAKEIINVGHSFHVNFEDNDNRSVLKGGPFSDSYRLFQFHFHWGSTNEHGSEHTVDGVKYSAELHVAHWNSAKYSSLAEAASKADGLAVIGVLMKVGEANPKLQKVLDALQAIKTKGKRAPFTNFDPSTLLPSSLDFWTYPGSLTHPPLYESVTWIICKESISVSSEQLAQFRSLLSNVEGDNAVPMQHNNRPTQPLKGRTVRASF
Description: Inhibition of human carbonic anhydrase I assessed as inhibition constant by stopped-flow carbon dioxide hydrase assay

Sequence of Carbonic anhydrase 12 (O43570 whole entry): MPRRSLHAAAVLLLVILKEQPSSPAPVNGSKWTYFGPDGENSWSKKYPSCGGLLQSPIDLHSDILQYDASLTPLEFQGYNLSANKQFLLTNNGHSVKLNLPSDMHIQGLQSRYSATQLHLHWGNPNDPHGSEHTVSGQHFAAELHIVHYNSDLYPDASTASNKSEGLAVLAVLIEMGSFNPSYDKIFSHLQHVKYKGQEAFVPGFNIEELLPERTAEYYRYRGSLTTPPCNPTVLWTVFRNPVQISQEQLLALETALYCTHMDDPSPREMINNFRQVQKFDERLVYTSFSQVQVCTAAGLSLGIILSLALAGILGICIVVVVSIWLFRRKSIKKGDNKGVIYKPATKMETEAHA

Row | SMILES | Ki (Carbonic anhydrase 2) | Ki (Carbonic anhydrase 12) | Ki (Carbonic anhydrase 9) | Ki (Carbonic anhydrase 1)
1 | NS(=O)(=O)c1ccc(/N=C/c2ccc(Cl)cc2)cc1 | 22.6 nM |  |  | 
2 | NS(=O)(=O)c1ccc(/N=C/c2ccc([N+](=O)[O-])cc2)cc1 | 25.7 nM |  |  | 
3 | NS(=O)(=O)c1ccc(N2C(=O)CCSC2c2ccc(F)cc2)cc1 (racemic) | 7.8 nM | 9.4 nM | 74.6 nM | 13.6 nM
4 | N#Cc1ccc(C2SCCC(=O)N2c2ccc(S(N)(=O)=O)cc2)cc1 (racemic) | 8.2 nM | 89.9 nM | 3.7 nM | 8.6 nM
5 | N#Cc1cccc(C2SCCC(=O)N2c2ccc(S(N)(=O)=O)cc2)c1 (racemic) | 14.6 nM | 61.1 nM | 18.9 nM | 7.2 nM
6 | NS(=O)(=O)c1ccc(N2C(=O)CCSC2c2ccc([N+](=O)[O-])cc2)cc1 (racemic) | 80.1 nM | 7.1 nM | 54.8 nM | 82.9 nM
7 | NS(=O)(=O)c1ccc(N2C(=O)CCSC2c2ccc(Cl)cc2)cc1 (racemic) | 9 nM | 8.2 nM | 19.9 nM | 62.4 nM

Source: ChEMBL document CHEMBL6083214, “Synthesis, biochemical screening and in-silico investigations of arylsulfonamides bearing linear and cyclic tails” (Bioorg Med Chem Lett, 2024)
